# Data published in publication PMC11259170, “Small-molecule probe for IBD risk variant GPR65 I231L alters cytokine signaling networks through positive allosteric modulation” (Science Advances, 2024).
# System: GPR65 WT BMDCs
# Experiment: RNA sequencing of BMDCs, GPR65 WT
# Type: cell-based, mouse
# Protocol: BMDCs were differentiated from bone marrow from in Dulbecco’s modified Eagle’s medium (DMEM) [10% heat-inactivated fetal bovine serum (FBS), 1X GlutaMAX, 1% penicillin-streptomycin] containing recombinant murine granulocyte-macrophage colony-stimulating factor (rmGM-CSF) (20 ng/ml; Peprotech, 315-03) for 7 days, supplemented with additional DMEM + rmGM-CSF on day 3. Cells were then scraped and seeded at 1 × 10^5 cells per well in a 96-well microplate and allowed to adhere overnight.
# Different media were prepared on the basis of target pH. pH 6.6: DMEM [10% FBS, 1% penicillin/streptomycin (p/s), 20 mM BES (MilliporeSigma, B4554), 1X Glutamax (Gibco, 35050061), 3.75 mM sodium bicarbonate, and 41.25 mM NaCl]. pH 7.2: DMEM (10% FBS, 1% p/s, 20 mM BES, 1X Glutamax, 7.5 mM sodium bicarbonate, and 36.5 mM NaCl). pH 7.6: DMEM 10% FBS, 1% p/s, 20 mM BES, 1X Glutamax, and 44 mM sodium bicarbonate. Media was allowed to equilibrate overnight at 37°C, 5% CO2 in a vented conical tube, and then adjusted to desired pH immediately before the stimulation using 1 M NaOH.
# BMDCs were stimulated with different compounds and pH conditions while simultaneously challenged with zymosan (5 μg/ml; Invivogen, tlrl-zyn) for 2 hours. The treatment conditions were as follows: (i) pH 7.2 + DMSO, (ii) pH 7.2 + 20 μM BRD5075, (iii) pH 7.6 + DMSO, and (iv) pH 7.6 + 5 μM PGE2 (Tocris, 2296). Cells were lysed with a lysis/binding buffer (Invitrogen, A33562).
# Libraries were prepared using a modified SmartSeq2 protocol. RNA lysates were purified with Dynabeads mRNA Direct Purification kit (Life Technologies, 61011), followed by reverse transcription with Maxima Reverse Transcriptase (Thermo Fisher Scientific, EP0742) and whole transcription amplification (WTA) with KAPA HotStart HiFi 2x ReadyMix (Kapa Biosystems, KK2601). WTA products were purified with Ampure XP beads (Beckman Coulter, A63880). RNA sequencing libraries were constructed using Nextera XT DNA Library Preparation kit (Illumina, FC-131-1096). Samples were purified with Ampure XP, pooled in equal quantities, then run on 2% E-gel EX (Invitrogen, G402022). Extracted library from ~250 to 800 bps with gel extraction kit (Zymo Research, D4008). The libraries were sequenced on an Illumina NextSeq 500 instrument with NextSeq 500/550 High Output v2 kit (Illumina, 20024906) and the following parameters: paired End: Index1 8, Index2 8, Read1 38, Read 2 38.
# BCL files were converted to fastq using Bcl2Fastq. Fastq reads were aligned to the mouse reference genome mm10 using the STAR aligner ([55]), and counts assigned to genes using the RSEM package ([56]). The R/Bioconductor package DESeq2 ([57]) was used to identify differentially expressed (DE) genes. The data were not normalized or pre-processed in any way, as DESeq2 expects raw un-normalized counts as input. Genes with a Benjamini and Hochberg–corrected P value < 0.1 were considered statistically significant.
# [1] = WT BMDCs, BRD5075 vs DMSO, pH 7.2
smiles,measurement,setting,value
"Cc1ccc(NC(=O)c2cnn3c(O)cc(-c4ccc(COC(C)C)cc4)nc23)nc1 [BRD5075, O=C(NC1=NC=C(C)C=C1)C2=C3N(N=C2)C(O)=CC(C4=CC=C(COC(C)C)C=C4)=N3]",Fos expression,"20 μM vs DMSO, pH 7.2",up-regulated
same,Socs3 and Cish expression,"20 μM vs DMSO, pH 7.2",down-regulated
same,"Tnfrsf9, Tnfrsf26 and Tnfaip8 expression","20 μM vs DMSO, pH 7.2",down-regulated
same,"expression of inflammatory cytokine (Il12b, Il1b, Tnf) and chemokine (Ccl7, Ccl2, Ccl22, Cxcl1, Cxcl2, Cxcl3) genes","20 μM vs DMSO, pH 7.2",down-regulated
same,Mt1 and Mt2 expression,"20 μM vs DMSO, pH 7.2, zymosan, 2 hours",up-regulated
same,log2FoldChange Acod1,[1],-0.8043
same,log2FoldChange Ahnak,[1],-0.3498
same,log2FoldChange Bcl2a1a,[1],-0.4699
same,log2FoldChange Bcl2a1b,[1],-0.2827
same,log2FoldChange Bcl2a1d,[1],-0.38
same,log2FoldChange Btg1,[1],-0.3947
same,log2FoldChange Cacnb3,[1],-0.5998
same,log2FoldChange Cap1,[1],-0.3862
same,log2FoldChange Car2,[1],-0.6566
same,log2FoldChange Ccl2,[1],-0.6388
same,log2FoldChange Ccl5,[1],-0.8152
same,log2FoldChange Ccl7,[1],-1.049
same,log2FoldChange Ccl22,[1],-0.5298
same,log2FoldChange Ccr7,[1],-0.5607
same,log2FoldChange Ccrl2,[1],-0.6903
same,log2FoldChange Cd14,[1],-0.4004
same,log2FoldChange Cd86,[1],-0.6053
same,log2FoldChange Cdc37,[1],-0.5925
same,log2FoldChange Cdc42ep2,[1],-0.4809
same,log2FoldChange Cebpb,[1],-0.9437
same,log2FoldChange Cflar,[1],-0.6547
same,log2FoldChange Cish,[1],-0.8764
same,log2FoldChange Clec4e,[1],-0.6037
same,log2FoldChange Coro1a,[1],-0.3668
same,log2FoldChange Cxcl1,[1],-0.8744
same,log2FoldChange Cxcl2,[1],-0.4995
same,log2FoldChange Cxcl3,[1],-0.5082
same,log2FoldChange Cytip,[1],-0.4125
same,log2FoldChange Ddx5,[1],-0.3311
same,log2FoldChange Ehd1,[1],-0.3665
same,log2FoldChange Eif1a,[1],-0.4662
same,log2FoldChange Fam177a,[1],-0.5633
same,log2FoldChange Flrt3,[1],-0.6822
same,log2FoldChange Fos,[1],0.7626
same,log2FoldChange Fscn1,[1],-1.127
same,log2FoldChange Gem,[1],-0.7493
same,log2FoldChange Ghitm,[1],-0.3657
same,log2FoldChange Gpr84,[1],-0.6049
same,log2FoldChange H2-Ab1,[1],-0.3044
same,log2FoldChange H2-D1,[1],-0.3663
same,log2FoldChange H2-K1,[1],-0.4443
same,log2FoldChange H2-Q4,[1],-0.9033
same,log2FoldChange H2-Q6,[1],-0.6888
same,log2FoldChange H2-Q7,[1],-0.7384
same,log2FoldChange Hivep3,[1],-0.8888
same,log2FoldChange Hnrnpab,[1],-0.4744
same,log2FoldChange Ier3,[1],-0.643
same,log2FoldChange Ifitm1,[1],-0.5428
same,log2FoldChange Ifitm3,[1],-0.5054
same,log2FoldChange Il1b,[1],-1.038
same,log2FoldChange Il1rn,[1],-0.3871
same,log2FoldChange Il12b,[1],-0.7451
same,log2FoldChange Inhba,[1],-0.8833
same,log2FoldChange Irf8,[1],-0.5092
same,log2FoldChange Lrrc58,[1],-0.5089
same,log2FoldChange Malt1,[1],-0.6085
same,log2FoldChange Marcksl1,[1],-0.8077
same,log2FoldChange Myo9b,[1],-0.609
same,log2FoldChange Nfe2l2,[1],-0.3368
same,log2FoldChange Nfkb2,[1],-0.6827
same,log2FoldChange Nfkbia,[1],-0.3317
same,log2FoldChange Nfkbid,[1],-0.8151
same,log2FoldChange Nfkbie,[1],-0.5542
same,log2FoldChange Pde4b,[1],-0.698
same,log2FoldChange Plau,[1],-0.5236
same,log2FoldChange Plek,[1],-0.4983
same,log2FoldChange Ptafr,[1],-0.4512
same,log2FoldChange Ptgs2,[1],-0.6129
same,log2FoldChange Ptpn6,[1],-0.3496
same,log2FoldChange Rasgef1b,[1],-0.4887
same,log2FoldChange Rgs1,[1],-0.3869
same,log2FoldChange Rps28,[1],0.3044
same,log2FoldChange Rsad2,[1],-0.6161
same,log2FoldChange S100a8,[1],-0.9378
same,log2FoldChange S100a9,[1],-1.055
same,log2FoldChange Samsn1,[1],-0.5214
same,log2FoldChange Sat1,[1],-0.2878
same,log2FoldChange Sel1l,[1],-0.4914
same,log2FoldChange Sh3bgrl,[1],-0.3277
same,log2FoldChange Slc3a2,[1],-0.6173
same,log2FoldChange Slc7a11,[1],-0.4778
same,log2FoldChange Slfn2,[1],-0.3087
same,log2FoldChange Socs3,[1],-0.448
same,log2FoldChange Sqstm1,[1],-0.4417
same,log2FoldChange Srgn,[1],-0.3315
same,log2FoldChange Stub1,[1],-0.4634
same,log2FoldChange Syngr2,[1],-0.3646
same,log2FoldChange Tfec,[1],-0.8287
same,log2FoldChange Tlr2,[1],-0.455
same,log2FoldChange Tmem123,[1],-0.5279
same,log2FoldChange Tmsb10,[1],0.5333
same,log2FoldChange Tnf,[1],-0.4212
same,log2FoldChange Tnfaip8,[1],-0.4539
same,log2FoldChange Tnfrsf9,[1],-0.6055
same,log2FoldChange Tnfrsf26,[1],-0.4775
same,log2FoldChange Tnip3,[1],-0.5262
same,log2FoldChange Ybx1,[1],-0.4889
same,log2FoldChange mt-Atp8,[1],0.4788
